Reference: patent US9828375B2, “4-position substituted pyrazolopyrimidine derivative, and use thereof in drug preparation” (Guangxi Wuzhou Pharmaceuticals (Group) Co., Ltd., priority 2012, dated 2017)

Tests used:
VEGFR2 = VEGFR2 (Homo sapiens, UniProt P35968); assay: Kinase inhibition activity test, isotope labeling (γ-33P-ATP): VEGFR2; type: biochemical; conditions: for inhibition at 10 µM / Activity inhibition rate VEGFR2 (h): test compound at a concentration of 10 μM; for inhibition at 10 µM: read-out: Activity inhibition rate VEGFR2 (h); for IC50: ATP 90 μM, read-out: VEGFR2 IC50 value (inhibitory activity value)
Protocol: (§1) The purpose of this experiment was to test the inhibitory activity of the compound of the invention for in vitro kinase with the isotope labeling method (the γ phosphate group on ATP was labeled). In this experiment, the in vitro activity inhibition of such kinases as FLT3, VEGFR2, FLT1, FLT4, RET, c-RAF, B-RAF, c-KIT, PDGFα, PDGFβ, FGFR2, FGFR1, EphA2, EphB2, SRC, ABL, ALK and Met was tested respectively. Staurosporine was reference molecule (or referred to as positive control). The kinase inhibition activity of the test compound was expressed by half-inhibitory concentration (IC50) or the kinase activity inhibition rate of the test compound at a concentration of 10 μM. The IC50 value could be obtained by calculating the kinase activity inhibition rate of the test compound at different concentrations.
(§2) 20 mM 3-(N-morpholinyl)propanesulfonic acid (MOPS); 1 mM ethylenediaminetetraacetic acid (EDTA), 0.01% Brij 35 (Brij-35), 5% glycerol, 0.1% mercaptoethanol, 1 mg/mL bovine serum albumin (BSA), 10 mM manganous dichloride solution (MnCl2), 0.1 mg/mL glutamic acid/tyrosine (4:1) polypeptide (poly(Glu, Tyr)4:1), 50 μM EAIYAAPFAKKK (substrate of FLT3), 0.33 mg/mL myelin basic protein (substrate of VEGFR2), 250 μM KKKSPGEYVNIEFG (substrate of FLT1(h)), 500 μM GGEEEEYFELVKKKK (substrate of FLT4(h)), 250 μM KKKSPGEYVNIEFG (substrate of RET), 0.66 mg/mL myelin basic protein (substrate of C-RAF), 250 μM GGMEDIYFEFMGGKKK (substrate of c-Kit), 250 μM GGMEDIYFEFMGGKKK (substrate of PDGFα), 250 μM KKKSPGEYVNIEFG (substrate of FGFR1), […] GGEEEEYFELVKKKK (substrate of SRC), 50 μM EAIYAAPFAKKK (substrate of ABL), 250 μM KKKSPGEYVNIEFG (substrate of ALK), 250 μM KKKSPGEYVNIEFG (substrate of Met(h)), 10 mM magnesium acetate and γ-^33 P-ATP solution, stop buffer (3% phosphate buffer), washing buffer (75 mM phosphate solution), methanol, Filtermat A membrane, FLT3, VEGFR2, FLT3, VEGFR2, FLT1, FLT4, RET, c-RAF, B-RAF, c-KIT, PDGFRα, PDGFRβ, FGFR2, FGFR1, EphA2, EphB2, SRC, ABL, ALK, Met and other kinases, and the test compounds.
(§3) Buffers (8 mM MOPS with pH value of 7.0, 0.2 mM EDTA and 10 mM MnCl2), (5-10 mU) kinases to be tested (FLT3, VEGFR2, FLT1, FLT4, RET, c-RAF, B-RAF, c-KIT, PDGFRα, PDGFRβ, FGFR2, FGFR1, EphA2, EphB2, SRC, ABL, ALK and Met), substrates of kinases to be tested (refer to experimental materials), 10 mM magnesium acetate and γ-^33 P-ATP solution, and test compounds at different concentrations were added to a reaction tube orderly. […] Reaction was terminated with 5 μL 3% phosphate buffer finally, and 10 μL reaction solution was titrated to the Filtermat A membrane; solution was washed for 3 times with 75 mM phosphate solution with each time lasting 5 minutes, and then washed once with methanol. Finally, the Filtermat A membrane was dried, and scintillation counting was performed on the membrane, with scintillation count reflecting the phosphorylation degree of the substrates, so that the activity inhibition of kinase could be characterized.

PDGFRα = PDGFRα (Homo sapiens, UniProt P16234); assay: Kinase inhibition activity test, isotope labeling: PDGFRα; type: biochemical; conditions: for inhibition at 10 µM / Activity inhibition rate PDGFRα (h): test compound at a concentration of 10 μM; for inhibition at 10 µM: read-out: Activity inhibition rate PDGFRα (h)
Protocol: as §1, §2, §3

FGFR2 = FGFR2 (Homo sapiens, UniProt P21802); assay: Kinase inhibition activity test, isotope labeling: FGFR2; type: biochemical; conditions: for inhibition at 10 µM / Activity inhibition rate FGFR2 (h): test compound at a concentration of 10 μM; for inhibition at 10 µM: read-out: Activity inhibition rate FGFR2 (h)
Protocol: as §1, §2, §3

[1] = tested on: human leukemia cell line MV4-11; assay: In vitro tumor cell proliferation inhibition (MTT): MV4-11; type: cell-based
From the text: (§4) The purpose of the experiment was to test the inhibition activity of the compounds of the invention for in vitro human tumor cell proliferation by the methyl thiazolyl tetrazolium (MTT) colorimetry.
(§5) Main reagents: RPMI-1640, fetal bovine serum, pancreatin, etc. were purchased from Gibco BRL Company (Invitrogen Corporation, USA) and IMDM medium that was purchased from American Type Culture Collection (ATCC). Methyl thiazolyl tetrazolium (MTT) and dimethyl sulfoxide (DMSO) were products from Sigma Company (USA). Pyrazolopyrimidine derivatives were composed by the inventor. During in vitro experiment, 100% DMSO was prepared into 10 mM storage solution, the solution was stored in a refrigerator at −20° C. for future use, and was diluted to the required concentration with complete culture solution before use.
(§6) Cell line and culture: Human leukemia cell line MV4-11, Jurkat, K562, human thyrophyma cell line TT, human gastric carcinoma cell line MKN-45, human malignant melanoma cell lines A375 and A875, human pancreatic carcinoma cell line panc-1, human cervical carcinoma cell line HELA, human colorectal carcinoma cell line HCT116, etc. were purchased from American type culture collection and were preserved by this laboratory. All leukemia cell lines (except MV4-11), gastric carcinoma cell lines and thyrophyma cell lines were cultured in RPMI-1640 complete medium containing 10% fetal bovine serum, 100 U/mL penicillin and 100 μg/mL streptomycin at 37° C. in 5% CO2. The remaining cell lines were cultured in DMEM complete medium containing 10% fetal bovine serum (containing 20% MV4-11 cell), 100 U/mL penicillin and 100 µg/mL streptomycin at 37° C. in 5% CO2.
(§7) Cell suspension with cell concentration of 1-2×10^4/mL was adjusted with the complete cell medium and inoculated in a 96-well plate, with each well filled with 200 μl cell suspension that was cultured overnight. On the next day, supernatant was sucked and abandoned (supernatant was sucked upon centrifugation of suspension cells), and then cells were processed with test compounds at gradient concentrations respectively. Meanwhile, a negative control group free from drug and a solvent control group with equal volume were set, and the DMSO concentration was 0.1%. Each dose group was provided with three wells and cultured at 37° C. in 5% CO2. After 72 hours, 20 μl 5 mg/mL MTT reagent was added to each well, and cultured for another 2 to 4 hours, the supernatant was abandoned; 150 μL DMSO was added to each well again, vibrated and mixed evenly for 15 minutes; the absorbance (A) values (proportional to living cell amount) were determined with a microplate reader (λ=570 nm) and averaged. […] Experiment was repeated for 3 times at least. Experimental data were expressed with means, data statistics were tested by t, and P<0.05 means that difference has a statistical significance. The cell proliferation inhibition effects of all compounds as follows are expressed by IC50 or inhibition rate.

[2] = tested on: human leukemia cell line K562; assay: In vitro tumor cell proliferation inhibition (MTT): K562; type: cell-based
From the text: as §4, §5, §6, §7

Chain of VEGFR2 (P35968 20-1356): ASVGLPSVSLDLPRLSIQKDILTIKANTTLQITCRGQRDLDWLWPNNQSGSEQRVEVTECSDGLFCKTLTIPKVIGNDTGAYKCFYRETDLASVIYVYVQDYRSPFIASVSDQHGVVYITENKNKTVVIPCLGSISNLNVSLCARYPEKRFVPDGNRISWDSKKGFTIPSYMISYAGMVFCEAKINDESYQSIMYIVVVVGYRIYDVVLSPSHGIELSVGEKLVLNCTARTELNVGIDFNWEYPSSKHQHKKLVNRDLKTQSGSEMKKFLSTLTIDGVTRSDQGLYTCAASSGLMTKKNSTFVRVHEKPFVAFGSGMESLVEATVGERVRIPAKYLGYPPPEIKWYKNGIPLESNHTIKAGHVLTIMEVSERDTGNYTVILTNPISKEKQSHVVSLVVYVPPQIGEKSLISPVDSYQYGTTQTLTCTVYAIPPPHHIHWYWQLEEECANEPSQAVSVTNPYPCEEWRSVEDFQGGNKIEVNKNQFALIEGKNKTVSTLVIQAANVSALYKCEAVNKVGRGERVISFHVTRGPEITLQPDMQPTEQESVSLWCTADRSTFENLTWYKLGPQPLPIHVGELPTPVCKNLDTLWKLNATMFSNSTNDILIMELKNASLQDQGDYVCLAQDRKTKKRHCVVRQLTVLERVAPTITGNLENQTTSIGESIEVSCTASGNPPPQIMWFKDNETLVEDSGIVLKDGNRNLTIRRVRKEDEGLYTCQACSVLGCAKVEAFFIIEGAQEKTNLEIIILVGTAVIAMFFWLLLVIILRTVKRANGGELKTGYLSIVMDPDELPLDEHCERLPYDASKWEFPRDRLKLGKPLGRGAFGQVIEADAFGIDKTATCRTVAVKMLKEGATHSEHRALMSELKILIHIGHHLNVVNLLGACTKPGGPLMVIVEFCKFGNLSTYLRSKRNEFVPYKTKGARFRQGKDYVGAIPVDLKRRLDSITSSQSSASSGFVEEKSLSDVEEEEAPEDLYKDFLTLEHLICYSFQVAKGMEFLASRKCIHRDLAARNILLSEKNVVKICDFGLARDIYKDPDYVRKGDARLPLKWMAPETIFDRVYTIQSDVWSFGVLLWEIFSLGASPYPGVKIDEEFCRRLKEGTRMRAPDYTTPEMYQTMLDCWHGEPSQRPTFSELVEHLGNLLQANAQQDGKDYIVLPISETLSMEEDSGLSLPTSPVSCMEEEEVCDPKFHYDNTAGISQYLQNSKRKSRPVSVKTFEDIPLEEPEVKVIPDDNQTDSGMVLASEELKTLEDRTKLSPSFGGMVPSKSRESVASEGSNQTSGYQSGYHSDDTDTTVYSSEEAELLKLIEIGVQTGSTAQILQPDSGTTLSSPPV
Chain of PDGFRα (P16234 24-1089): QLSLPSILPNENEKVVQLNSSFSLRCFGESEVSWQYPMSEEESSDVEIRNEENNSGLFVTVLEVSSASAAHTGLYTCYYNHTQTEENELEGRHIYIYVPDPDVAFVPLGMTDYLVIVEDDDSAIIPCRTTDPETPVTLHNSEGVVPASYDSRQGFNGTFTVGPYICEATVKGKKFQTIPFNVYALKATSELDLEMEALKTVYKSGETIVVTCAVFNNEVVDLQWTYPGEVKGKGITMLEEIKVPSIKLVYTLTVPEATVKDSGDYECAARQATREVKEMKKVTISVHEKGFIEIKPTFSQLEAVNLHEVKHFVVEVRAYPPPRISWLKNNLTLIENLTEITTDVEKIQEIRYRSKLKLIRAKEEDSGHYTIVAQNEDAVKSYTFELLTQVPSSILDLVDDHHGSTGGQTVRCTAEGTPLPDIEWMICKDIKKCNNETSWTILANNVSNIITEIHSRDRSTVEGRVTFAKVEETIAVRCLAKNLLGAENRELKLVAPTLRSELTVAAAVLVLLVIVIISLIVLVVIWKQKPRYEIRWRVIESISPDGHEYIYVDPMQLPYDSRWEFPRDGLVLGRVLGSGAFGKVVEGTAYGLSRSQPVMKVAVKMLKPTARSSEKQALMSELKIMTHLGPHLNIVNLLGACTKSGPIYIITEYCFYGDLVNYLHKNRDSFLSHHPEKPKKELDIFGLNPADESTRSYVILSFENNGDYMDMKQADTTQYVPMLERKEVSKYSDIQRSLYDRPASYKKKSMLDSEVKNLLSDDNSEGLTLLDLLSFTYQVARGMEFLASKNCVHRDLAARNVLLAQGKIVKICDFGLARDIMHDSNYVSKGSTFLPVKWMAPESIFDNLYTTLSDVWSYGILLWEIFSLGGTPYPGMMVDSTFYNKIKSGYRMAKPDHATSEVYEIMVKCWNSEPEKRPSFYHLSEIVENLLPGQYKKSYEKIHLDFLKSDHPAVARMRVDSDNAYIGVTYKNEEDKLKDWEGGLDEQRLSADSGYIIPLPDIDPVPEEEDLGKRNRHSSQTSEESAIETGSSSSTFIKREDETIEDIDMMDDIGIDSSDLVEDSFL
Chain of FGFR2 (P21802 22-821): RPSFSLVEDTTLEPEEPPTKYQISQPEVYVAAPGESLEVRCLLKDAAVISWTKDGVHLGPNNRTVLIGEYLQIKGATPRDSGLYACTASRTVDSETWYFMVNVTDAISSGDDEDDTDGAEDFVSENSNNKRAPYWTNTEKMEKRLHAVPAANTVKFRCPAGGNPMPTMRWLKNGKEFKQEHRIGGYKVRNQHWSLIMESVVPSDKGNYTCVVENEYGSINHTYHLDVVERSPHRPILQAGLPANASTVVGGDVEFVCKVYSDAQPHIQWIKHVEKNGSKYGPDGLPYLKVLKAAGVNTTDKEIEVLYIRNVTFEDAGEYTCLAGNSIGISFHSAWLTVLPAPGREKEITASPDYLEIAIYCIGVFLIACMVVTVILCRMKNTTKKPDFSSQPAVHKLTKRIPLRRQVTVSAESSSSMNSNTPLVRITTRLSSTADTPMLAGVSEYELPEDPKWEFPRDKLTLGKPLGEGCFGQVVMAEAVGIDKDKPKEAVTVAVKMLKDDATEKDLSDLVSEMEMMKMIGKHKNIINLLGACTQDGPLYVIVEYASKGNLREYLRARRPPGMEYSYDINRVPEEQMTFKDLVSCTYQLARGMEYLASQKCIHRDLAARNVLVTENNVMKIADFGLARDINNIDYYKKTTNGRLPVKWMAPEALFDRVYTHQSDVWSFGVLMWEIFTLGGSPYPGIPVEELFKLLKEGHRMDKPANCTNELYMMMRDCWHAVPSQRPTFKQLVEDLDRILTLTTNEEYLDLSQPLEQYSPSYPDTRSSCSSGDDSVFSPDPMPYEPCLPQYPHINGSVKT

Structure (SMILES) | inhibition at 10 µM (VEGFR2) [%] | inhibition at 10 µM (PDGFRα) [%] | inhibition at 10 µM (FGFR2) [%] | IC50 ([1]; Homo sapiens, MV4-11, 72 h) [nM] | IC50 ([2]; Homo sapiens, K562, 72 hours) [nM] | IC50 ([1]; 72 hours) [nM] | IC50 (VEGFR2) [nM] | Activity inhibition rate VEGFR2 (h) (VEGFR2) [%] | Activity inhibition rate PDGFRα (h) (PDGFRα) [%] | Activity inhibition rate FGFR2 (h) (FGFR2) [%] | IC50 ([2]; 72 hours) [nM] | other results
O=C(Nc1ccc(Oc2ncnc3[nH]ncc23)cc1)Nc1cc(C(F)(F)F)on1 [4a-28] | 100 | > 50 | > 50 | 1.2 | 3000 to 10000 | – | – | – | – | – | – | –
C[C@@H](NC(=O)Nc1ccc(Nc2ncnc3[nH]ncc23)cc1)c1ccccc1 [4b-2, (R)-1-(4-(1H-pyrazolopyrimidine-4-amido)phenyl)-3-(1-phenethyl)urea] | 88 | > 30 | – | – | < 50000 | 8030 | – | – | – | – | – | Activity inhibition rate FGFR2 (h) (FGFR2; 10 µM): 66%
CC(C)(C)c1cc(NC(=O)Nc2ccc(Oc3ncnc4[nH]ncc34)cc2)on1 [4a-25] | – | – | – | – | – | 0.3 | 12 | 100 | >50 | >50 | 3000 to 10000 | IC50 (PDGFRα; ATP 120 μM, read-out: PDGFRα IC50 value (inhibitory activity value)): 1400 nM; IC50 (FGFR2; ATP 90 μM, read-out: FGFR2 IC50 value (inhibitory activity value)): < 10000 nM
C[C@H](NC(=O)Nc1ccc(Oc2ncnc3[nH]ncc23)cc1)c1ccccc1 [4a-18, (S)-1-(4-((1H-pyrazolopyrimidine-4-yl)oxy)phenyl)-3-(1-phenethyl)urea] | – | – | – | – | – | 112 | – | 95 | 96 | 22 | < 50000 | –
O=C(Nc1ccc(Oc2ncnc3[nH]ncc23)cc1)Nc1ccc(N2CCOCC2)cc1 [4a-16, 1-(4-((1H-pyrazolopyrimidine-4-yl)oxy)phenyl)-3-(4-morpholinylphenyl)urea] | 91 | – | – | 89 | < 50000 | – | – | – | – | – | – | –
CC(C)(C)c1cc(NC(=O)Nc2ccc(Oc3ncnc4[nH]ncc34)cc2)no1 [4a-26] | 100 | > 50 | > 50 | 0.3 | 3000 to 10000 | – | 12 | – | – | – | – | –
COc1ccc(NC(=O)Nc2ccc(NC(=O)N3C=NC=C4NNC=C43)cc2)cc1 [4b-6, 1-(4-(1H-pyrazolopyrimidine-4-amido)phenyl)-3-(4-methoxyphenyl)urea] | 95 | > 30 | 32 | 729 | < 50000 | – | – | – | – | – | – | –
CC(C)n1ncc2c(Oc3ccc(NC(=O)Nc4cc(C(C)(C)C)on4)cc3)ncnc21 [5a-4, 1-(5-tert-butylisoxazol-3-yl)-3-(4-(1-isopropyl-(1H-pyrazolopyrimidine-4-yl)oxy)phenyl)urea] | > 90 | > 30 | > 30 | < 1000 | < 50000 | – | – | – | – | – | – | –
C[C@H](NC(=O)Nc1ccc(Nc2ncnc3[nH]ncc23)cc1)c1ccccc1 [4b-4] | – | – | – | – | – | 2050 | – | – | >30 | – | < 50000 | Activity inhibition rate VEGFR2 (h) (VEGFR2; 10 µM): 94%; Activity inhibition rate FGFR2 (h) (FGFR2; 10 µM): 32%
O=C(Nc1ccc(Oc2ncnc3[nH]ncc23)cc1)Nc1ccc(C(F)(F)F)cc1 [4a-1] | 100 | 63 | 22 | 5 | < 50000 | – | 30 | – | – | – | – | –
O=C(Nc1ccc(Sc2ncnc3[nH]ncc23)cc1)Nc1cccc(C(F)(F)F)c1 [4c-2] | – | – | – | – | – | 39 | – | 100 | >50 | >50 | – | –
O=C(Nc1ccc(C(F)(F)F)cc1)Nc1ccc(Oc2ncnc3[nH]ncc23)c(F)c1 [4a-9, 1-(4-((1H-pyrazolopyrimidine-4-yl)oxy)-3-fluorophenyl)-3-(4-(trifluoromethyl)phenyl)urea] | – | – | – | – | – | 43 | 19 | 100 | 24 | 18 | 2700 | –
O=C(Nc1ccccc1)Nc1ccc(Oc2ncnc3[nH]ncc23)cc1 [4a-15, 1-(4-((1H-pyrazolopyrimidine-4-yl)oxy)phenyl)-3-phenylurea] | – | – | – | – | – | 320 | 28 | 100 | 48 | 100 | < 50000 | –
COc1cccc(NC(=O)Nc2ccc(Nc3ncnc4[nH]ncc34)cc2)c1 [4b-3] | 96 | > 30 | 45 | 1650 | < 50000 | – | – | – | – | – | – | –
CC(C)(C)c1cc(NC(=O)Nc2ccc(Oc3ncnc4[nH]ncc34)cc2)n(-c2ccccc2)n1 [4a-24] | – | – | – | – | – | 0.4 | 14 | 100 | >50 | >50 | < 50000 | –
O=C(Nc1ccc(NC(=O)N2C=NC=C3NNC=C32)cc1)Nc1ccc(Cl)c(C(F)(F)F)c1 [4b-5, 1-(4-(1H-pyrazolopyrimidine-4-amido)phenyl)-3-(4-chloro-3-(trifluoromethyl)phenyl)urea] | 97 | > 30 | 52 | 50 | – | – | – | – | – | – | – | –
O=C(Nc1ccc(Sc2ncnc3[nH]ncc23)cc1)Nc1ccc(C(F)(F)F)cc1 [4c-1] | 100 | > 50 | > 50 | 12 | – | – | – | – | – | – | – | –
